row,SMILES,melting point [°C]
1,"O=C(NCc1ccccc1)c1ccc([C@H](O)[C@@H](Cc2cccc(OC(F)(F)C(F)F)c2)NC(=O)c2cccc3c2C=CCCC3)cc1 (racemic) [Example 316, N-[(1RS,2SR)-2-[4-[(benzylamino)carbonyl]phenyl]-2-hydroxy-1-[3-(1,1,2,2-tetrafluoroethoxy)benzyl]ethyl]-6,7-dihydro-5H-benzo[a]cycloheptene-1-carboxamide]",216 to 217
2,"CCCCNC(=O)c1ccc([C@H](O)[C@@H](Cc2cccc(OC(F)(F)C(F)F)c2)NC(=O)c2cccc3c2C=CCCC3)cc1 (racemic) [Example 317, N-[(1RS,2SR)-2-[4-[(butylamino)carbonyl]phenyl]-2-hydroxy-1-[3-(1,1,2,2-tetrafluoroethoxy)benzyl]ethyl]-6,7-dihydro-5H-benzo[a]cycloheptene-1-carboxamide]",207 to 208
3,"Cc1ccc(C(=O)N[C@H](Cc2cccc(OC(F)(F)C(F)F)c2)[C@@H](O)c2ccc(F)cc2)c2c1CCCC=C2 (racemic) [Example 318, N-[(1RS,2SR)-2-(4-fluorophenyl)-2-hydroxy-1-[3-(1,1,2,2-tetrafluoroethoxy)benzyl]ethyl]-4-methyl-6,7-dihydro-5H-benzo[a]cycloheptene-1-carboxamide]",177 to 178
4,"CC(C)(C)OC(=O)N[C@H](Cc1cc(OC(F)(F)C(F)F)no1)[C@@H](O)c1ccc(F)cc1 (racemic) [Example 319, tert-butyl N-[(1RS,2SR)-2-(4-fluorophenyl)-2-hydroxy-1-[[3-(1,1,2,2-tetrafluoroethoxy)isooxazol-5-yl]methyl]ethyl]carbamate]",114 to 115
5,"O=C(N[C@H](Cc1cc(OC(F)(F)C(F)F)no1)[C@@H](O)c1ccc(F)cc1)c1cccc2c1C=CCCC2 (racemic) [Example 320, N-[(1RS,2SR)-2-(4-fluorophenyl)-2-hydroxy-1-[[3-(1,1,2,2-tetrafluoroethoxy)isoxazol-5-yl]methyl]ethyl]-6,7-dihydro-5H-benzo[a]cycloheptene-1-carboxamide]",127 to 128
6,"CC(C)(C)OC(=O)Nc1ccc([C@H](O)[C@@H](Cc2cccc(OC(F)(F)C(F)F)c2)NC(=O)c2cccc3c2C=CCCC3)cc1 (racemic) [Example 321, N-[(1RS,2SR)-2-[4-[(tert-butoxycarbonyl)amino]phenyl]-2-hydroxy-1-[3-(1,1,2,2-tetrafluoroethoxy)benzyl]ethyl]-6,7-dihydro-5H-benzo[a]cycloheptene-1-carboxamide]",153 to 156
7,"Nc1ccc([C@H](O)[C@@H](Cc2cccc(OC(F)(F)C(F)F)c2)NC(=O)c2cccc3c2C=CCCC3)cc1 (racemic) [Example 322, N-[(1RS,2SR)-2-(4-aminophenyl)-2-hydroxy-1-[3-(1,1,2,2-tetrafluoroethoxy)benzyl]ethyl]-6,7-dihydro-5H-benzo[a]cycloheptene-1-carboxamide]",153 to 155
8,"CC(C)c1cccc(C[C@@H](NC(=O)c2cccc3c2C=CCCC3)[C@@H](O)c2ccc(F)cc2)c1 (racemic) [Example 323, N-[(1RS,2SR)-2-(4-fluorophenyl)-2-hydroxy-1-(3-isopropylbenzyl)ethyl]-6,7-dihydro-5H-benzo[a]cycloheptene-1-carboxamide]",165 to 167
9,"CC(C)c1cccc(C[C@@H](NC(=O)c2ccc(F)c3ccccc23)[C@@H](O)c2ccc(F)cc2)c1 (racemic) [Example 324, 4-fluoro-N-[(1RS,2SR)-2-(4-fluorophenyl)-2-hydroxy-1-(3-isopropylbenzyl)ethyl]naphthalene-1-carboxamide]",159 to 160
10,"CC(C)(C)OC(=O)N[C@H](Cc1cccc(OC(F)(F)C(F)F)c1)[C@@H](O)c1ccc(C=O)cc1 (racemic) [Example 325, tert-butyl N-[(1RS,2SR)-2-(4-formylphenyl)-2-hydroxy-1-[3-(1,1,2,2-tetrafluoroethoxy)benzyl]ethyl]carbamate]",140 to 142
11,"O=Cc1ccc([C@H](O)[C@@H](Cc2cccc(OC(F)(F)C(F)F)c2)NC(=O)c2cccc3c2C=CCCC3)cc1 (racemic) [Example 326, N-[(1RS,2SR)-2-(4-formylphenyl)-2-hydroxy-1-[3-(1,1,2,2-tetrafluoroethoxy)benzyl]ethyl]-6,7-dihydro-5H-benzo[a]cycloheptene-1-carboxamide]",164 to 166
12,"N#CC(c1ccc([C@H](O)[C@@H](Cc2cccc(OC(F)(F)C(F)F)c2)NC(=O)c2cccc3c2C=CCCC3)cc1)N1CCCCC1 (mixture of isomers) [Example 327, N-[(1RS,2SR)-2-[4-[cyano(piperidino)methyl]phenyl]-2-hydroxy-1-[3-(1,1,2,2-tetrafluoroethoxy)benzyl]ethyl]-6,7-dihydro-5H-benzo[a]cycloheptene-1-carboxamide]",152 to 154
13,"O=C(N[C@H](Cc1cccc(OC(F)(F)C(F)F)c1)[C@@H](O)c1ccc(CO)cc1)c1cccc2c1C=CCCC2 (racemic) [Example 327, N-[(1RS,2SR)-2-hydroxy-2-[4-(hydroxymethyl)phenyl]-1-[3-(1,1,2,2-tetrafluoroethoxy)benzyl]ethyl]-6,7-dihydro-5H-benzo[a]cycloheptene-1-carboxamide]",151 to 152
14,"O=C(N[C@H](Cc1cccc(OC(F)(F)C(F)F)c1)[C@@H](O)c1ccc(CN2CCCCC2)cc1)c1cccc2c1C=CCCC2 (racemic) [Example 327, N-[(1RS,2SR)-2-hydroxy-2-[4-(piperidinomethyl)phenyl]-1-[3-(1,1,2,2-tetrafluoroethoxy)benzyl]ethyl]-6,7-dihydro-5H-benzo[a]cycloheptene-1-carboxamide]",104 to 106
15,"CC(C)(C)OC(=O)N[C@H](Cc1cccc(OC(F)(F)C(F)F)c1)[C@@H](O)c1ccc(Cl)nc1 (racemic) [Example 328, tert-butyl N-[(1RS,2SR)-2-(6-chloropyridin-3-yl)-2-hydroxy-1-[3-(1,1,2,2-tetrafluoroethoxy)benzyl]ethyl]carbamate]",119 to 121

# Next, values leading:
row,melting point [°C],SMILES
1,170 to 172,"O=C(N[C@H](Cc1cccc(OC(F)(F)C(F)F)c1)[C@@H](O)c1ccc(Cl)nc1)c1cccc2c1C=CCCC2 (racemic) [Example 329, N-[(1RS,2SR)-2-(6-chloropyridin-3-yl)-2-hydroxy-1-[3-(1,1,2,2-tetrafluoroethoxy)benzyl]ethyl]-6,7-dihydro-5H-benzo[a]cycloheptene-1-carboxamide]"
2,174 to 175,"O=C(N[C@H](Cc1cccc(OC(F)(F)C(F)F)c1)[C@@H](O)c1ccc(-c2ccccc2)nc1)c1cccc2c1C=CCCC2 (racemic) [Example 330, N-[(1RS,2SR)-2-hydroxy-2-(6-phenylpyridin-3-yl)-1-[3-(1,1,2,2-tetrafluoroethoxy)benzyl]ethyl]-6,7-dihydro-5H-benzo[a]cycloheptene-1-carboxamide]"
3,185 to 187,"O=C(N[C@H](Cc1cccc(OC(F)(F)C(F)F)c1)[C@@H](O)c1ccc(Cl)nc1)c1ccc(F)c2ccccc12 (racemic) [Example 331, N-[(1RS,2SR)-2-(6-chloropyridin-3-yl)-2-hydroxy-1-[3-(1,1,2,2-tetrafluoroethoxy)benzyl]ethyl]-4-fluoronaphthalene-1-carboxamide]"
4,174 to 175,"O=C(N[C@H](Cc1cccc(OC(F)(F)C(F)F)c1)[C@@H](O)c1ccc(F)cc1)c1cccc2c(Cl)cccc12 (racemic) [Example 333, 5-chloro-N-[(1RS,2SR)-2-(4-fluorophenyl)-2-hydroxy-1-[3-(1,1,2,2-tetrafluoroethoxy)benzyl]ethyl]naphthalene-1-carboxamide]"
5,178 to 180,"O=C(N[C@H](Cc1cccc(OC(F)(F)C(F)F)c1)[C@@H](O)c1ccc(F)cc1)c1cccc2c(F)cccc12 (racemic) [Example 334, 5-fluoro-N-[(1RS,2SR)-2-(4-fluorophenyl)-2-hydroxy-1-[3-(1,1,2,2-tetrafluoroethoxy)benzyl]ethyl]naphthalene-1-carboxamide]"
6,165 to 167,"O=C(N[C@H](Cc1cccc(C=C(F)C(F)F)c1)[C@@H](O)c1ccc(F)cc1)c1cccc2c1C=CCCC2 (racemic) [Example 335, N-[(1RS,2SR)-2-(4-fluorophenyl)-2-hydroxy-1-[3-(2,3,3-trifluoro-1-propenyl)benzyl]ethyl]-6,7-dihydro-5H-benzo[a]cycloheptene-1-carboxamide]"
7,184 to 185,"O=C(N[C@H](Cc1cccc(C=C(F)C(F)F)c1)[C@@H](O)c1ccc(F)cc1)c1ccc(F)c2ccccc12 (racemic) [Example 336, 4-fluoro-N-[(1RS,2SR)-2-(4-fluorophenyl)-2-hydroxy-1-[3-(2,3,3-trifluoro-1-propenyl)benzyl]ethyl]naphthalene-1-carboxamide]"
8,168 to 169,"CC(C)(C)OC(=O)N[C@H](Cc1cccc(CC(F)(F)C(F)F)c1)[C@@H](O)c1ccc(F)cc1 (racemic) [Example 337, tert-butyl N-[(1RS,2SR)-2-(4-fluorophenyl)-2-hydroxy-1-[3-(2,2,3,3-tetrafluoropropyl)benzyl]ethyl]carbamate]"
9,165 to 166,"O=C(N[C@H](Cc1cccc(CC(F)(F)C(F)F)c1)[C@@H](O)c1ccc(F)cc1)c1cccc2c1C=CCCC2 (racemic) [Example 338, N-[(1RS,2SR)-2-(4-fluorophenyl)-2-hydroxy-1-[3-(2,2,3,3-tetrafluoropropyl)benzyl]ethyl]-6,7-dihydro-5H-benzo[a]cycloheptene-1-carboxamide]"
10,172 to 173,"O=C(N[C@H](Cc1cccc(CC(F)(F)C(F)F)c1)[C@@H](O)c1ccc(F)cc1)c1ccc(F)c2ccccc12 (racemic) [Example 339, 4-fluoro-N-[(1RS,2SR)-2-(4-fluorophenyl)-2-hydroxy-1-[3-(2,2,3,3-tetrafluoropropyl)benzyl]ethyl]naphthalene-1-carboxamide]"
11,174 to 175,"O=C(N[C@H](Cc1cccc(CC(F)(F)C(F)F)c1)[C@@H](O)c1ccc(F)cc1)c1cccc2c(Cl)cccc12 (racemic) [Example 340, 5-chloro-N-[(1RS,2SR)-2-(4-fluorophenyl)-2-hydroxy-1-[3-(2,2,3,3-tetrafluoropropyl)benzyl]ethyl]naphthalene-1-carboxamide]"

# From patent US6982348B2, “Aminoethanol derivatives” (Takeda Pharmaceutical Company Limited, priority 2001, dated 2006)
